Results as given in paper PMC3033228 (Clinical colorectal cancer, 2010).
Read-outs that look alike come from different tables or passages of the source.

Assays:
CRC = settings: cited from earlier work
[1] = population pharmacokinetic analysis; cited from earlier work
[2] = human, in vivo
[3] = tested on: patients with advanced colorectal cancer; assay: Phase I toxicity assessment; settings: with FOLFOX4 with or without bevacizumab, oral, advanced CRC
patients = settings: cited from earlier work
clinical = settings: human, in vivo; for Cmax: Erlotinib Cmax
[4] = 5-Fluorouracil plasma pharmacokinetics; assay type: in vivo, human; settings: for 5-Fluorouracil Cl: DL 3 (erlotinib 150 mg), individual values (n = 2)

## COc1cc2ncnc(Nc3ccc(F)c(Cl)c3)c2cc1OCCCN1CCOCC1 [gefitinib]
CRC
  Response rates (RRs) of monotherapy trials: negligible

## C#Cc1cccc(Nc2ncnc3cc(OCCOC)c(OCCO)cc23)c1 [OSI-420]
[1]
  OSI-420 exposure as share of erlotinib exposure: approximately 10%
[2]; 50 mg
  OSI-420 Cmax: 60.8 ± 16.1 (3) ng/mL
  OSI-420 Tmax: 2.00 (1.08–2.00, 3) hour
[2]; 100 mg
  OSI-420 Cmax: 67.8 ± 49.1 (8) ng/mL
  OSI-420 Tmax: 3.00 (1.03–25.03, 8) hour
[2]; 150 mg
  OSI-420 Cmax: 193.2 ± 92.6 (3) ng/mL
  OSI-420 Tmax: 9.95 (2.07–24.08, 3) hour

## C#Cc1cccc(Nc2ncnc3cc(OCCOC)c(OCCOC)cc23)c1 [erlotinib]
[3]
  Maximum tolerated dose (MTD) of erlotinib: 100 mg daily
CRC
  Response rates (RRs) of monotherapy trials: negligible
patients
  Dose level at which grade 3 diarrhea occurred: 200 mg
patients; erlotinib 100 mg/day
  Patients experiencing diarrhea: 25%
patients; erlotinib 150 mg/day
  Patients experiencing diarrhea: 86%
clinical; 50 mg, Erlotinib Tmax
  Tmax: 1.08 h
clinical; 100 mg
  Cmax: 985 ± 576 ng/mL
clinical; 150 mg
  Cmax: 1960 ± 1160 ng/mL

## O=c1[nH]cc(F)c(=O)[nH]1 [5-Fluorouracil]
[4]; column Combination
  5-Fluorouracil Cl: 313.2 L/h
[4]; column Single Agent
  5-Fluorouracil Cl: 217.4 L/h
[4]; P = .97
  5-Fluorouracil systemic clearance, effect of co-administration of erlotinib: not markedly affected
